{
  "source": "patent US20160346249A1",
  "about": "(priority 2012, published 2016)",
  "key": {"[1]": {"assay": "12-month dog toxicity and toxicokinetic study", "assay_type": "in vivo", "conditions": "for Cmax / Tmax / AUC(0-t): beagle, dog, plasma, po; for AUC(0-t): read-out: AUC0-24; for body weight lower than control: Week 52", "experimental": "Blood samples were collected on Days 0, 91, 181, 268 and 358 from up to 4 animals/gender/group. Plasma samples collected on Days 91, 181, 268, as well as all plasma samples collected from the control group were not evaluated.\nFor toxicology assessment four dogs of each gender were included in each group. Assessments included clinical observations, body weight, and food consumption measures which were recorded periodically during the study. Ophthalmic examinations were performed during Weeks 1, 12, 25, 38, 51, and 55 (recovery period). Electrocardiograms were recorded during Weeks 2, 12, 25, 38, and 51. Clinical pathology evaluations (hematology, serum chemistry, and urinalysis) were performed during Weeks 1, 12, 25, 38, 52, and 56 (recovery period). At termination, complete necropsies were performed on all dogs and selected organs were weighed. Selected tissues from the control and 20 (15) mg/kg/day group animals and animals euthanized in extremis were examined microscopically. Sections of livers from dogs in the control and 20 (15) mg/kg/day groups were collected at both the primary and 4-week post-treatment recovery necropsies for assessment of drug metabolism enzyme (microsomal cytochrome P450) activity."}, "[2]": {"assay": "13-week mouse toxicity and toxicokinetic study", "conditions": "in vivo; for AUC(0-t): AUC0-24", "experimental": "For toxicology assessment ten mice of each gender were placed in each group.\nOphthalmic examinations were performed during Weeks −1 and 12."}, "[3]": {"assay": "14-day mouse toxicity and toxicokinetic study", "conditions": "both, Crl:CD-1(ICR) BR, in vivo, po"}, "[4]": {"conditions": "female, 2 mg/kg/day, females, 2 mg/kg/day, Day 358"}, "[5]": {"conditions": "female, 6 mg/kg/day, females, 6 mg/kg/day, Day 0"}, "[6]": {"conditions": "female, 6 mg/kg/day, females, 6 mg/kg/day, Day 358"}, "[7]": {"conditions": "female, 15 mg/kg/day, females, 20 (15) mg/kg/day, Day 358"}, "[8]": {"conditions": "female, 20 mg/kg/day, females, 20 (15) mg/kg/day, Day 0"}, "[9]": {"conditions": "male, 2 mg/kg/day, males, 2 mg/kg/day, Day 0"}, "[10]": {"conditions": "male, 2 mg/kg/day, males, 2 mg/kg/day, Day 358"}, "[11]": {"conditions": "male, 6 mg/kg/day, males, 6 mg/kg/day, Day 0"}, "[12]": {"conditions": "male, 6 mg/kg/day, males, 6 mg/kg/day, Day 358"}, "[13]": {"conditions": "male, 15 mg/kg/day, males, 20 (15) mg/kg/day, Day 358"}, "[14]": {"conditions": "male, 20 mg/kg/day, males, 20 (15) mg/kg/day, Day 0"}, "[15]": {"conditions": "female, Crl:CD-1(ICR) BR, po, 10 mg/kg/day"}, "[16]": {"conditions": "female, Crl:CD-1(ICR) BR, po, 30 mg/kg/day"}, "[17]": {"conditions": "female, Crl:CD-1(ICR) BR, po, 100 mg/kg/day"}, "[18]": {"conditions": "male, Crl:CD-1(ICR) BR, po, 10 mg/kg/day"}, "[19]": {"conditions": "male, Crl:CD-1(ICR) BR, po, 30 mg/kg/day"}, "[20]": {"conditions": "male, Crl:CD-1(ICR) BR, po, 100 mg/kg/day"}},
  "data": [
    {"smiles": "Clc1ccc([C@]23CNC[C@H]2C3)cc1Cl", "note": "[amitifadine, (+)-1-(3,4-dichlorophenyl)-3-azabicyclo[3.1.0]hexane]", "values": [
      {"measurement": "Cmax", "setting": "[1]; [4]", "value": 1150, "unit": "ng/mL"},
      {"measurement": "Tmax", "setting": "[1]; [4]", "value": 1, "unit": "h"},
      {"measurement": "AUC(0-t)", "setting": "[1]; [4]", "value": 3990, "unit": "ng·h/mL"},
      {"measurement": "Cmax", "setting": "[1]; [5]", "value": 3680, "unit": "ng/mL"},
      {"measurement": "Tmax", "setting": "[1]; [5]", "value": 1.3, "unit": "h"},
      {"measurement": "AUC(0-t)", "setting": "[1]; [5]", "value": 10800, "unit": "ng·h/mL"},
      {"measurement": "Cmax", "setting": "[1]; [6]", "value": 2420, "unit": "ng/mL"},
      {"measurement": "Tmax", "setting": "[1]; [6]", "value": 1, "unit": "h"},
      {"measurement": "AUC(0-t)", "setting": "[1]; [6]", "value": 11100, "unit": "ng·h/mL"},
      {"measurement": "Cmax", "setting": "[1]; [7]", "value": 5800, "unit": "ng/mL"},
      {"measurement": "Tmax", "setting": "[1]; [7]", "value": 1.2, "unit": "h"},
      {"measurement": "AUC(0-t)", "setting": "[1]; [7]", "value": 19600, "unit": "ng·h/mL"},
      {"measurement": "Cmax", "setting": "[1]; [8]", "value": 6880, "unit": "ng/mL"},
      {"measurement": "Tmax", "setting": "[1]; [8]", "value": 1, "unit": "h"},
      {"measurement": "AUC(0-t)", "setting": "[1]; [8]", "value": 24100, "unit": "ng·h/mL"},
      {"measurement": "body weight lower than control", "setting": "[1]; females, 6 mg/kg/day", "value": 12, "unit": "%"},
      {"measurement": "body weight lower than control", "setting": "[1]; females, 20 (15) mg/kg/day", "value": 14, "unit": "%"},
      {"measurement": "Cmax", "setting": "[1]; [9]", "value": 1040, "unit": "ng/mL"},
      {"measurement": "Tmax", "setting": "[1]; [9]", "value": 1.3, "unit": "h"},
      {"measurement": "AUC(0-t)", "setting": "[1]; [9]", "value": 2130, "unit": "ng·h/mL"},
      {"measurement": "Cmax", "setting": "[1]; [10]", "value": 844, "unit": "ng/mL"},
      {"measurement": "Tmax", "setting": "[1]; [10]", "value": 1, "unit": "h"},
      {"measurement": "AUC(0-t)", "setting": "[1]; [10]", "value": 2220, "unit": "ng·h/mL"},
      {"measurement": "Cmax", "setting": "[1]; [11]", "value": 3250, "unit": "ng/mL"},
      {"measurement": "Tmax", "setting": "[1]; [11]", "value": 1.3, "unit": "h"},
      {"measurement": "AUC(0-t)", "setting": "[1]; [11]", "value": 10500, "unit": "ng·h/mL"},
      {"measurement": "Cmax", "setting": "[1]; [12]", "value": 2780, "unit": "ng/mL"},
      {"measurement": "Tmax", "setting": "[1]; [12]", "value": 1.3, "unit": "h"},
      {"measurement": "AUC(0-t)", "setting": "[1]; [12]", "value": 15800, "unit": "ng·h/mL"},
      {"measurement": "Cmax", "setting": "[1]; [13]", "value": 4830, "unit": "ng/mL"},
      {"measurement": "Tmax", "setting": "[1]; [13]", "value": 1.2, "unit": "h"},
      {"measurement": "AUC(0-t)", "setting": "[1]; [13]", "value": 18100, "unit": "ng·h/mL"},
      {"measurement": "Cmax", "setting": "[1]; [14]", "value": 7980, "unit": "ng/mL"},
      {"measurement": "Tmax", "setting": "[1]; [14]", "value": 1, "unit": "h"},
      {"measurement": "AUC(0-t)", "setting": "[1]; [14]", "value": 29600, "unit": "ng·h/mL"},
      {"measurement": "body weight lower than control", "setting": "[1]; males, 6 mg/kg/day", "value": 5, "unit": "%"},
      {"measurement": "body weight lower than control", "setting": "[1]; males, 20 (15) mg/kg/day", "value": 15, "unit": "%"},
      {"measurement": "NOAEL at 13 weeks", "setting": "[2]; both sexes, Crl:CD-1(ICR) BR, oral, 13 weeks", "value": 30, "unit": "mg/kg/day"},
      {"measurement": "MTD at 13 weeks", "setting": "[2]; both sexes, Crl:CD-1(ICR) BR, po", "value": 100, "unit": "mg/kg/day"},
      {"measurement": "anovulatory status (females affected)", "setting": "[2]; female, Crl:CD-1(ICR) BR, 100 mg/kg/day, 13 weeks", "value": "5/10"},
      {"measurement": "AUC0-24", "setting": "[2]; [15]", "value": 1980, "unit": "ng·h/mL"},
      {"measurement": "AUC(0-t)", "setting": "[2]; [15]", "value": 2540, "unit": "ng·h/mL"},
      {"measurement": "Cmax", "setting": "[2]; [15]", "value": 296, "unit": "ng/mL"},
      {"measurement": "Tmax", "setting": "[2]; [15]", "value": 1, "unit": "h"},
      {"measurement": "AUC0-24", "setting": "[2]; [16]", "value": 7629, "unit": "ng·h/mL"},
      {"measurement": "AUC(0-t)", "setting": "[2]; [16]", "value": 7120, "unit": "ng·h/mL"},
      {"measurement": "Cmax", "setting": "[2]; [16]", "value": 972, "unit": "ng/mL"},
      {"measurement": "Tmax", "setting": "[2]; [16]", "value": 2, "unit": "h"},
      {"measurement": "AUC0-24", "setting": "[2]; [17]", "value": 17431, "unit": "ng·h/mL"},
      {"measurement": "AUC(0-t)", "setting": "[2]; [17]", "value": 20000, "unit": "ng·h/mL"},
      {"measurement": "Cmax", "setting": "[2]; [17]", "value": 2450, "unit": "ng/mL"},
      {"measurement": "Tmax", "setting": "[2]; [17]", "value": 1, "unit": "h"},
      {"measurement": "ovary/oviduct weights lower", "setting": "[2]; 100 mg/kg/day", "value": "23-28%"},
      {"measurement": "AUC0-24", "setting": "[2]; [18]", "value": 2141, "unit": "ng·h/mL"},
      {"measurement": "AUC(0-t)", "setting": "[2]; [18]", "value": 2050, "unit": "ng·h/mL"},
      {"measurement": "Cmax", "setting": "[2]; [18]", "value": 288, "unit": "ng/mL"},
      {"measurement": "Tmax", "setting": "[2]; [18]", "value": 1, "unit": "h"},
      {"measurement": "AUC0-24", "setting": "[2]; [19]", "value": 6659, "unit": "ng·h/mL"},
      {"measurement": "AUC(0-t)", "setting": "[2]; [19]", "value": 7290, "unit": "ng·h/mL"},
      {"measurement": "Cmax", "setting": "[2]; [19]", "value": 704, "unit": "ng/mL"},
      {"measurement": "Tmax", "setting": "[2]; [19]", "value": 1, "unit": "h"},
      {"measurement": "AUC0-24", "setting": "[2]; [20]", "value": 28952, "unit": "ng·h/mL"},
      {"measurement": "AUC(0-t)", "setting": "[2]; [20]", "value": 24100, "unit": "ng·h/mL"},
      {"measurement": "Cmax", "setting": "[2]; [20]", "value": 2850, "unit": "ng/mL"},
      {"measurement": "Tmax", "setting": "[2]; [20]", "value": 1, "unit": "h"},
      {"measurement": "NOAEL at 14 days", "setting": "[3]", "value": 100, "unit": "mg/kg/day"}
    ]}
  ]
}
